# Organism: Rattus norvegicus
# Experiment: DrugMatrix - Regimen: Daily Repeat
# Type: toxicity, organism-based, Sprague-Dawley
# Parameters: regimen Daily Repeat, gender Male, age 6-8 weeks
# Conditions: in vivo, po, route oral GAVAGE, vehicle .5 % CMC; for ABSOLUTE BASOPHIL / ABSOLUTE EOSINOPHIL / ABSOLUTE LYMPHOCYTE / ABSOLUTE MONOCYTE / ABSOLUTE SEGMENTED NEUTROPHIL / BASOPHIL / EOSINOPHIL / ERYTHROCYTE COUNT / HEMATOCRIT / HEMOGLOBIN / LEUKOCYTE COUNT / LYMPHOCYTE / MEAN CORPUSCULAR HEMOGLOBIN / MEAN CORPUSCULAR HEMOGLOBIN CONCENTRATION / MEAN CORPUSCULAR VOLUME / MONOCYTE / NEUTROPHIL / NUCLEATED RED BLOOD CELLS / PLATELET COUNT: tissue Blood; for ALANINE AMINOTRANSFERASE / ALBUMIN / ALKALINE PHOSPHATASE / ASPARTATE AMINOTRANSFERASE / BLOOD UREA NITROGEN / CARBON DIOXIDE / CHLORIDE / CHOLESTEROL / CREATINE PHOSPHOKINASE / CREATININE / GLUCOSE / LACTATE DEHYDROGENASE / LIPASE / PHOSPHORUS / POTASSIUM / SODIUM / TOTAL BILIRUBIN / TOTAL PROTEIN / URIC ACID: tissue Plasma
# [1] = 0 mg/kg, 72 h, dose level Control, time 3 day
# [2] = 0 mg/kg, 120 h, dose level Control, time 5 day
# [3] = 1200 mg/kg, 72 h, dose level High, time 3 day
compound,measurement,setting,value
CCC[C@@H]1C[C@@H](C(=O)N[C@@H]([C@H]2O[C@H](SC)[C@H](O)[C@@H](O)[C@H]2O)[C@@H](C)O)N(C)C1 [LINCOMYCIN],ABSOLUTE BASOPHIL,[1],0 CELLS/uL
same,ABSOLUTE EOSINOPHIL,[1],0 CELLS/uL
same,ABSOLUTE LYMPHOCYTE,[1],12269.67 CELLS/uL
same,ABSOLUTE MONOCYTE,[1],160.33 CELLS/uL
same,ABSOLUTE SEGMENTED NEUTROPHIL,[1],970 CELLS/uL
same,BASOPHIL,[1],0%
same,EOSINOPHIL,[1],0%
same,ERYTHROCYTE COUNT,[1],5.76 x10E6/uL
same,HEMATOCRIT,[1],36.57%
same,HEMOGLOBIN,[1],14.22 G/DL
same,LEUKOCYTE COUNT,[1],13.4 x10E3/uL
same,LYMPHOCYTE,[1],91.67%
same,MEAN CORPUSCULAR HEMOGLOBIN,[1],24.67 pg
same,MEAN CORPUSCULAR HEMOGLOBIN CONCENTRATION,[1],38.85 G/DL
same,MEAN CORPUSCULAR VOLUME,[1],63.52 fL
same,MONOCYTE,[1],1.17%
same,NEUTROPHIL,[1],7.17%
same,NUCLEATED RED BLOOD CELLS,[1],0.33 /100WBC
same,PLATELET COUNT,[1],1250.83 x10E3/uL
same,ALANINE AMINOTRANSFERASE,[1],49.17 u/L
same,ALBUMIN,[1],4.33 G/DL
same,ALKALINE PHOSPHATASE,[1],378.5 u/L
same,ASPARTATE AMINOTRANSFERASE,[1],82.17 u/L
same,BLOOD UREA NITROGEN,[1],15 mg/dL
same,CARBON DIOXIDE,[1],34.33 mmol/L
same,CHLORIDE,[1],99.17 MEQ/L
same,CHOLESTEROL,[1],71.17 mg/dL
same,CREATINE PHOSPHOKINASE,[1],258.67 u/L
same,CREATININE,[1],0.18 mg/dL
same,GLUCOSE,[1],142.67 mg/dL
same,LACTATE DEHYDROGENASE,[1],154.33 u/L
same,LIPASE,[1],9 u/L
same,PHOSPHORUS,[1],11.67 mg/dL
same,POTASSIUM,[1],7.13 MEQ/L
same,SODIUM,[1],142.22 MEQ/L
same,TOTAL BILIRUBIN,[1],0.18 mg/dL
same,TOTAL PROTEIN,[1],5.77 G/DL
same,URIC ACID,[1],1.55 mg/dL
same,ABSOLUTE BASOPHIL,[2],0 CELLS/uL
same,ABSOLUTE EOSINOPHIL,[2],23.33 CELLS/uL
same,ABSOLUTE LYMPHOCYTE,[2],14943.67 CELLS/uL
same,ABSOLUTE MONOCYTE,[2],32 CELLS/uL
same,ABSOLUTE SEGMENTED NEUTROPHIL,[2],1084.33 CELLS/uL
same,BASOPHIL,[2],0%
same,EOSINOPHIL,[2],0.17%
same,ERYTHROCYTE COUNT,[2],5.71 x10E6/uL
same,HEMATOCRIT,[2],35.28%
same,HEMOGLOBIN,[2],14.27 G/DL
same,LEUKOCYTE COUNT,[2],16.08 x10E3/uL
same,LYMPHOCYTE,[2],93%
same,MEAN CORPUSCULAR HEMOGLOBIN,[2],25.02 pg
same,MEAN CORPUSCULAR HEMOGLOBIN CONCENTRATION,[2],40.43 G/DL
same,MEAN CORPUSCULAR VOLUME,[2],61.82 fL
same,MONOCYTE,[2],0.17%
same,NEUTROPHIL,[2],6.67%
same,NUCLEATED RED BLOOD CELLS,[2],0.33 /100WBC
same,PLATELET COUNT,[2],1274 x10E3/uL
same,ALANINE AMINOTRANSFERASE,[2],54.17 u/L
same,ALBUMIN,[2],4.22 G/DL
same,ALKALINE PHOSPHATASE,[2],373.17 u/L
same,ASPARTATE AMINOTRANSFERASE,[2],81.83 u/L
same,BLOOD UREA NITROGEN,[2],16.67 mg/dL
same,CARBON DIOXIDE,[2],30.33 mmol/L
same,CHLORIDE,[2],99 MEQ/L
same,CHOLESTEROL,[2],71 mg/dL
same,CREATINE PHOSPHOKINASE,[2],273.5 u/L
same,CREATININE,[2],0.22 mg/dL
same,GLUCOSE,[2],141.83 mg/dL
same,LACTATE DEHYDROGENASE,[2],153.67 u/L
same,LIPASE,[2],10.33 u/L
same,PHOSPHORUS,[2],11.38 mg/dL
same,POTASSIUM,[2],7.08 MEQ/L
same,SODIUM,[2],142.75 MEQ/L
same,TOTAL BILIRUBIN,[2],0.18 mg/dL
same,TOTAL PROTEIN,[2],6.1 G/DL
same,URIC ACID,[2],1.67 mg/dL
same,ABSOLUTE BASOPHIL,[3],0 CELLS/uL
same,ABSOLUTE EOSINOPHIL,[3],0 CELLS/uL
same,ABSOLUTE LYMPHOCYTE,[3],14618 CELLS/uL
same,ABSOLUTE MONOCYTE,[3],0 CELLS/uL
same,ABSOLUTE SEGMENTED NEUTROPHIL,[3],1248.67 CELLS/uL
same,BASOPHIL,[3],0%
same,EOSINOPHIL,[3],0%
same,ERYTHROCYTE COUNT,[3],5.99 x10E6/uL
same,HEMATOCRIT,[3],37.8%
same,HEMOGLOBIN,[3],15 G/DL
same,LEUKOCYTE COUNT,[3],15.87 x10E3/uL
same,LYMPHOCYTE,[3],92.33%
same,MEAN CORPUSCULAR HEMOGLOBIN,[3],25.1 pg
same,MEAN CORPUSCULAR HEMOGLOBIN CONCENTRATION,[3],39.73 G/DL
same,MEAN CORPUSCULAR VOLUME,[3],63.2 fL
same,MONOCYTE,[3],0%
same,NEUTROPHIL,[3],7.67%
same,NUCLEATED RED BLOOD CELLS,[3],0 /100WBC
same,PLATELET COUNT,[3],1182.33 x10E3/uL
same,ALANINE AMINOTRANSFERASE,[3],58.67 u/L
same,ALBUMIN,[3],4.3 G/DL
same,ALKALINE PHOSPHATASE,[3],350.33 u/L
same,ASPARTATE AMINOTRANSFERASE,[3],86.33 u/L
same,BLOOD UREA NITROGEN,[3],17.33 mg/dL
same,CARBON DIOXIDE,[3],33.33 mmol/L
same,CHLORIDE,[3],99 MEQ/L
same,CHOLESTEROL,[3],100.67 mg/dL
same,CREATINE PHOSPHOKINASE,[3],190.67 u/L
same,CREATININE,[3],0.21 mg/dL
same,GLUCOSE,[3],155.33 mg/dL
same,LACTATE DEHYDROGENASE,[3],170.67 u/L
same,LIPASE,[3],9.67 u/L
same,PHOSPHORUS,[3],12.27 mg/dL
same,POTASSIUM,[3],7.02 MEQ/L
same,SODIUM,[3],145.6 MEQ/L
same,TOTAL BILIRUBIN,[3],0.23 mg/dL
same,TOTAL PROTEIN,[3],6.23 G/DL
same,URIC ACID,[3],1.33 mg/dL
